Patent publication US20090270255A1 (priority 2005, published 2009)
Like-named read-outs stand apart in the source and are kept apart here.

Test system: Pyricularia oryzae
Assay type: cell-based
[1] = single active compound, conc. 1 ppm, MTP measured at 405 nm on day 7 after inoculation, 18° C.

Row | Molecule | Observed effect (%) [1] [%] | Observed effect (%) (single active compound, conc. 4 ppm, MTP measured at 405 nm on day 7 after inoculation, 18° C.) | Observed effect (%)
1 | CC1(C)CC/C(=C\c2ccc(Cl)cc2)C1(O)Cn1cncn1 (stereo not shown) [Triticonazole, triticonazole] | 3 | 13 | –
2 | Fc1ccc(C2(Cn3cncn3)OC2c2ccccc2Cl)cc1 (stereo not shown) [Epoxiconazole, epoxiconazole] | 0 | – | –
3 | bromuconazole | – | – | 0
